ChEMBL document CHEMBL5338761 (J Med Chem, 2023)
Each block holds one molecule with its values, some of them ahead of it.

Key:
[1] = molecular target: T1, DNA polymerase theta (Homo sapiens, UniProt O75417); assay: Inhibition of POLQ PD (unknown origin) (1819 to 2590 residues) incubated for 15 mins by fluorescence based analysis
[2] = molecular target: T1, DNA polymerase theta; assay: Inhibition of POLQ (unknown origin) incubated for 15 mins in presence of ATP and NADPH by absorbance based analysis
[3] = molecular target: T1, DNA polymerase theta; assay: Inhibition of POLQ (unknown origin); format: single protein
[4] = molecular target: T1, DNA polymerase theta; assay: Inhibition of POLQ PD (unknown origin) (1819 to 2590 residues) incubated for 15 mins by luminescence based analysis
[5] = molecular target: T1, DNA polymerase theta; assay: Inhibition of POLQ PD (unknown origin) (1819 to 2590 residues) by fluorescence based analysis
[6] = molecular target: T1, DNA polymerase theta; assay: Inhibition of POLQ (unknown origin) (1 to 987 residues) using […] as substrate incubated for 30 mins in presence of ATP relative to control
[7] = tested on: TERT-RPE1; assay: Antiproliferative activity against BRCA1 knockout human RPE-1 cells assessed as inhibition of cell growth by CellTiter-Glo assay; format: functional, cell-based
[8] = tested on: TERT-RPE1; assay: Antiproliferative activity against P53 knockout human RPE-1 cells assessed as inhibition of cell growth by CellTiter-Glo assay; format: functional, cell-based
[9] = tested on: TERT-RPE1; assay: Antiproliferative activity against P53 and BRCA1 knockout human RPE-1 cells assessed as inhibition of cell growth by CellTiter-Glo assay; format: functional, cell-based
[10] = tested on: TERT-RPE1; assay: Antiproliferative activity against BRCA1 knockout human RPE-1 cells assessed as fold change in rucaparib IC50 by CellTiter-Glo assay; format: functional
[11] = tested on: TOV21G; assay: Antiproliferative activity against HR knockout human TOV-21G cells assessed as fold change in olaparib IC50 by CellTiter-Glo assay; format: functional
[12] = molecular target: T1, DNA polymerase theta; assay: Inhibition of N-terminal/C-termianl Flag-tagged POLQ (unknown origin) (2 to 2590 residues) expressed in baculovirus incubated for 30 mins by fluorescence based analysis
[13] = tested on: TERT-RPE1; assay: Antiproliferative activity against human RPE-1 cells expressing wild type BRCA1 assessed as inhibition of cell growth by CellTiter-Glo assay; format: functional, cell-based
[14] = tested on: MCF7; assay: Antiproliferative activity against human MCF7 cells assessed as inhibition of cell growth incubated for 6 days by CellTiter-Glo assay; format: functional, cell-based; settings: MCF7, 144 h
[15] = tested on: HCT-116; assay: Antiproliferative activity against human HCT-116 cells assessed as inhibition of cell growth incubated for 6 days by CellTiter-Glo assay; format: functional, cell-based; settings: HCT-116, 144 h
[16] = tested on: PC-3; assay: Antiproliferative activity against human PC-3 cells assessed as inhibition of cell growth incubated for 6 days by CellTiter-Glo assay; format: functional, cell-based; settings: PC-3, 144 h
[17] = tested on: A549; assay: Antiproliferative activity against human A549 cells assessed as inhibition of cell growth incubated for 6 days by CellTiter-Glo assay; format: functional, cell-based; settings: A549, 144 h
[18] = Antiproliferative activity against human MDA-1986 cells assessed as inhibition of cell growth incubated for 6 days by CellTiter-Glo assay; format: functional, cell-based; settings: MDA1986, 144 h

T1 sequence (O75417 whole entry, the tested form may be a part): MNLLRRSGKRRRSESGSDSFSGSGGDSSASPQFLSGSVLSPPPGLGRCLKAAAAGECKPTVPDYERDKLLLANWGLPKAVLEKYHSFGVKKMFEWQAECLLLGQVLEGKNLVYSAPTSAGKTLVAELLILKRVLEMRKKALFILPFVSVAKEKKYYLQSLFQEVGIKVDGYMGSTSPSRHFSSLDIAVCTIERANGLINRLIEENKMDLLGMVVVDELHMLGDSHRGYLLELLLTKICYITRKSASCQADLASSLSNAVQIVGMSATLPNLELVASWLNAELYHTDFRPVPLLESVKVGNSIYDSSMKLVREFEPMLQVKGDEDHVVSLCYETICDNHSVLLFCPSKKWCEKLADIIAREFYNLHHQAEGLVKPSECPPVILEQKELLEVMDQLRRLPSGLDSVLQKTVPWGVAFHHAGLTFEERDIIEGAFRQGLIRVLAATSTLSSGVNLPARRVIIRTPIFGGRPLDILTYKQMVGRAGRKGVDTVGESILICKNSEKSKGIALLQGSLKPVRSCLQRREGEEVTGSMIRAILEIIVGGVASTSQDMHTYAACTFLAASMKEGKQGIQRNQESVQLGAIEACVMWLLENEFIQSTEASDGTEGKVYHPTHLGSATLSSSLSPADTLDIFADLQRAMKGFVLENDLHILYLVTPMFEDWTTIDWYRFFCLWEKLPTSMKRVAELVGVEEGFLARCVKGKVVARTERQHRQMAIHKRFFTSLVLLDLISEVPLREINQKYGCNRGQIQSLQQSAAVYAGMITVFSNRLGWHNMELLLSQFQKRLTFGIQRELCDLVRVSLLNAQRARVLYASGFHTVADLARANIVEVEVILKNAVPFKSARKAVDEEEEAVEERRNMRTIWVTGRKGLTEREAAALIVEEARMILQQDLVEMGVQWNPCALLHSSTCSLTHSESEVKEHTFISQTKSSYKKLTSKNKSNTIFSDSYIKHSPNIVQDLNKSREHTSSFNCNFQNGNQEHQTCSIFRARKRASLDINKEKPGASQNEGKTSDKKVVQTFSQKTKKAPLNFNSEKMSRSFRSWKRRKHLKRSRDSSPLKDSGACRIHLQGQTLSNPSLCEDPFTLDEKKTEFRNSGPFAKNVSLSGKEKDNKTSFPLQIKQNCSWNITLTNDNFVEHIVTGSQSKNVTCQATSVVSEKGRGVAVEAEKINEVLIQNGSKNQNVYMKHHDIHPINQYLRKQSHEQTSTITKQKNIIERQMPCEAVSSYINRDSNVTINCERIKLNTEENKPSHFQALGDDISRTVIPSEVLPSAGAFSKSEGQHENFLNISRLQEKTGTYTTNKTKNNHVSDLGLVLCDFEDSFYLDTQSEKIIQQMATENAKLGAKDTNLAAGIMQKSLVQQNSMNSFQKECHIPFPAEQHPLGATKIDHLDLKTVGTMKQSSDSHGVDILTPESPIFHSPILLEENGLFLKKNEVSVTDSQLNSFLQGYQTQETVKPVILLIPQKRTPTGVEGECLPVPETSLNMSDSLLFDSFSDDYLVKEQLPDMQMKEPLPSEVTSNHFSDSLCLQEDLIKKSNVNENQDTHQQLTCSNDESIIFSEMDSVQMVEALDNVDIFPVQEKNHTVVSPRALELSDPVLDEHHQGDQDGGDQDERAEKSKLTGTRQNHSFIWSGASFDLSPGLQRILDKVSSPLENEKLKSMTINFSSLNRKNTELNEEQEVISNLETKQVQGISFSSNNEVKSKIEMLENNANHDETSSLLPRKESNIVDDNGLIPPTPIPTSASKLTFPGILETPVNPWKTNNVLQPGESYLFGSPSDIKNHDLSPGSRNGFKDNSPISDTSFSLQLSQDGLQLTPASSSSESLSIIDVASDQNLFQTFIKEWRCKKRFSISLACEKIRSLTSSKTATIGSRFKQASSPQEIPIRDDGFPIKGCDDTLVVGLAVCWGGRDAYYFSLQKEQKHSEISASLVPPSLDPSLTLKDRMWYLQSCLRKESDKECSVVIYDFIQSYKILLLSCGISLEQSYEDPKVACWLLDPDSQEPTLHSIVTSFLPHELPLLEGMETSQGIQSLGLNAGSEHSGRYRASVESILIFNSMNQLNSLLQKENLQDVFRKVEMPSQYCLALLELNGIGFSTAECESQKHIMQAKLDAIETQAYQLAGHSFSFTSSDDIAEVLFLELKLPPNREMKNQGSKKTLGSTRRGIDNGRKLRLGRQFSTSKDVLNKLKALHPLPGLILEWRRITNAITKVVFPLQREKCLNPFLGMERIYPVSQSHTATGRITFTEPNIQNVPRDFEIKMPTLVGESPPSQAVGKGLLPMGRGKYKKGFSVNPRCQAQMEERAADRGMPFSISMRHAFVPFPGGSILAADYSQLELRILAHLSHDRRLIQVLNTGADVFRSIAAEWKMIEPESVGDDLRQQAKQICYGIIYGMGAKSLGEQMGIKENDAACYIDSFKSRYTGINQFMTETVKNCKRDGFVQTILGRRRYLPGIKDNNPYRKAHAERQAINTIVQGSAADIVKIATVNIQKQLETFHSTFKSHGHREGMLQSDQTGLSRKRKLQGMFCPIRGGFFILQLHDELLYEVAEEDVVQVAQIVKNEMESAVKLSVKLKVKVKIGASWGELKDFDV

Compound: Cc1cc(C(F)(F)F)cc(N2C(=O)OC[C@H]2c2nc(Cl)cn2-c2ccc(F)c(Cl)c2)n1
IC50 [1]: 5 nM

Compound: COc1ccccc1-c1cc(C)ncc1C(=O)Nc1nnc(OCc2ccc(Cl)cn2)s1
IC50 [2]: ≤ 200 nM

Compound: Cc1nc(NCc2nccn2-c2ccccc2)c(C#N)c(C)c1Cl
IC50 [3]: < 200 nM

Compound: N#Cc1c(C(F)(F)F)cc(C(F)(F)F)nc1NCc1nccn1-c1ccc(F)cc1
IC50 [5]: < 200 nM

Compound: Cc1nc(NCC(=O)N(C)c2ccccc2)c(C#N)c(C)c1Cl
IC50 [3]: < 200 nM

Compound: COc1cccc(-c2cc(C(=O)N[C@H]3CC[C@H](c4ccc(OC5CCNCC5)cc4)CC3)ccc2OC)c1
inhibition [6]: 70%

Compound: COc1cnc(Cl)cc1-c1cc(C)ncc1C(=O)Nc1nnc(OCc2ccc(Cl)cn2)s1
IC50 [2]: ≤ 200 nM

Compound: CN(C(=O)CNc1nc(C(F)(F)F)cc(C(F)(F)F)c1C#N)c1ccc(F)cc1
IC50 [5]: < 200 nM

Compound: CO[C@@H]1[C@@H](OC(N)=O)[C@@H](O)[C@H](Oc2ccc3c(O)c(NC(=O)c4ccc(O)c(CC=C(C)C)c4)c(=O)oc3c2C)OC1(C)C [NOVOBIOCIN]
IC50 [7]: 86000 nM
IC50 [8]: 358000 nM
IC50 [9]: 97200 nM
fold change (FC) [10]: 20
fold change (FC) [11]: 40

Compound: Cc1nc(SCC(=O)N(C)c2ccccc2)c(C#N)c(C)c1Cl
IC50 [1]: 200 nM
IC50 [4]: 200 nM

Compound: Cc1cc(-c2nc(NC(=O)N[C@H]3CCCNC3)cs2)ccc1OC[C@]1(C)CCOC1
IC50 [12]: 7 nM

Further lines, with some results ahead:

IC50 [1]: ≤ 200 nM
IC50 [4]: ≤ 200 nM
Compound: CN(C(=O)[C@@H]1CCCN1c1cc(C(F)(F)F)cc(C(F)(F)F)n1)c1ccc(F)cc1

IC50 [3]: < 200 nM
Compound: CN(C(=O)[C@@H]1CCCN1c1cc(C(F)(F)F)ccn1)c1ccc(F)cc1

IC50 [3]: < 200 nM
Compound: Cc1cccc(N(C)C(=O)[C@@H]2CCCN2c2nc(C)cc(C(F)(F)F)c2C#N)c1

IC50 [12]: 2 nM
Compound: Cc1ccc(NC(=O)Nc2cncc(-c3ccc(OCC4(C)CCOC4)c(C)c3)n2)cn1 (centres undefined)

inhibition [6]: 50%
IC50 [14]: 460 nM
IC50 [15]: 800 nM
IC50 [16]: 60 nM
IC50 [17]: 130 nM
Compound: Cc1c(OC2CCN(C)CC2)ccc2cc(NC(=O)Nc3ccc(C(F)(F)F)cc3)c(=O)oc12
IC50 [7]: 160 nM
IC50 [13]: 450 nM
IC50 [18]: 900 nM
